In the experiment the test system is P388 leukemia ip, CD2F1 mice, survival T/C. Nature of the experiment: NCI In Vivo Anticancer Drug Screen. Data for tumor model P388 Leukemia (intraperitoneal) in CD2F1 (CDF1) mice. The conditions noted are these: endpoint: median survival time, higher = longer survival. The essentials: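 Mice carrying the transplanted tumor received test compound or vehicle. Survival was recorded in each group, and the value is the treated-group measurement divided by that of the vehicle-treated control group.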

Setting [1] is: dose: 12.5 mg/kg/injection, schedule: Q01DX009 (ip), vehicle: saline with Tween-80.
Setting [2] is: dose: 25.0 mg/kg/injection, schedule: Q01DX009 (ip), vehicle: saline with Tween-80.
[3] abbreviates: dose: 50.0 mg/kg/injection, schedule: Q01DX009 (ip), vehicle: saline with Tween-80.
Setting [4] is: dose: 100.0 mg/kg/injection, schedule: Q01DX009 (ip), vehicle: saline with Tween-80.
Setting [5] is: dose: 50.0 mg/kg/injection, schedule: Q01DX009 (ip), vehicle: saline.
Setting [6] is: dose: 100.0 mg/kg/injection, schedule: Q01DX009 (ip), vehicle: saline.
The mark [7] stands for this setting: dose: 200.0 mg/kg/injection, schedule: Q01DX009 (ip), vehicle: saline.
Setting [8] is: dose: 50.0 mg/kg/injection, schedule: Q01DX005 (ip), vehicle: saline with Tween-80.
[9] abbreviates: dose: 100.0 mg/kg/injection, schedule: Q01DX005 (ip), vehicle: saline with Tween-80.
Setting [10] is: dose: 100.0 mg/kg/injection, schedule: Q01DX001 (ip), vehicle: saline with Tween-80.
The mark [11] stands for this setting: dose: 50.0 mg/kg/injection, schedule: Q01DX009 (ip), vehicle: Klucel (hydroxypropylcellulose) (HPC).
Where [12] appears, read: dose: 100.0 mg/kg/injection, schedule: Q01DX009 (ip), vehicle: Klucel (hydroxypropylcellulose) (HPC).
The mark [13] stands for this setting: dose: 60.0 mg/kg/injection, schedule: Q01DX005 (ip), vehicle: saline with Tween-80.
The mark [14] stands for this setting: dose: 120.0 mg/kg/injection, schedule: Q01DX005 (ip), vehicle: saline with Tween-80.
[15] abbreviates: dose: 60.0 mg/kg/injection, schedule: Q01DX005 (ip), vehicle: Klucel (hydroxypropylcellulose) (HPC).
Setting [16] is: dose: 120.0 mg/kg/injection, schedule: Q01DX005 (ip), vehicle: Klucel (hydroxypropylcellulose) (HPC).
The mark [17] stands for this setting: dose: 240.0 mg/kg/injection, schedule: Q01DX005 (ip), vehicle: Klucel (hydroxypropylcellulose) (HPC).

Our source for the T/C values is PubChem BioAssay AID330 (DTP/NCI, 2004).

The structures appear in SMILES notation. Where “and” joins values, the source holds several entries; their conditions need not be identical. Identical values can stand only once. Inconclusive results and toxic doses are left out. Numbered stars: 1 amine (or outer) side, 2 acyl side, 3 side chain; on linkers, the order of the positions; unused ones are H or OH. Bridge positions count the residues as written; N and C are the ends. Square brackets hold non-standard residues; d marks the D form. Peptide text beside a SMILES is read from it. I, II: the chains in the order shown. Actinocin(1to9) = Cc1c2oc3c(C)ccc(C(=O)[*:2])c3nc-2c(C(=O)[*:1])c(N)c1=O; Hyp = O=C(O)[CH]1C[CH](O)CN1; NMeV = CN[CH](C(=O)O)C(C)C; Sar = CNCC(=O)O

On to `O=[N+]([O-])c1ccc2nc3c4ccccc4c4ccccc4c3nc2c1`, for which the T/C is 105 % of control under setting [1]; 116 % of control under setting [2]; 109 % of control and 117 % of control under setting [3]; 105 % of control under setting [4]; 104 % of control (dose: 200.0 mg/kg/injection, schedule: Q01DX009 (ip), vehicle: saline with Tween-80).
Consider `CSC(SC)=C(C#N)C#N`, for which the T/C (dose: 25.0 mg/kg/injection, schedule: Q04DX003 (ip), vehicle: saline) is 104 % of control; the T/C (dose: 50.0 mg/kg/injection, schedule: Q04DX003 (ip), vehicle: saline) is 105 % of control; the T/C (dose: 100.0 mg/kg/injection, schedule: Q04DX003 (ip), vehicle: saline) was 108 % of control.
Consider `CC1(C(O)CO)C=C2CCC3C(C)(C)C(O)CCC3(C)C2CC1` (configuration not stated), for which the T/C is, setting by setting: (dose: 2.25 mg/kg/injection, schedule: Q01DX009 (ip), vehicle: Klucel (hydroxypropylcellulose) (HPC)) 108 % of control; (dose: 4.5 mg/kg/injection, schedule: Q01DX009 (ip), vehicle: Klucel (hydroxypropylcellulose) (HPC)) 103 % of control; (dose: 9.0 mg/kg/injection, schedule: Q01DX009 (ip), vehicle: Klucel (hydroxypropylcellulose) (HPC)) 103 % of control; (dose: 18.0 mg/kg/injection, schedule: Q01DX009 (ip), vehicle: Klucel (hydroxypropylcellulose) (HPC)) 93 % of control.
Regarding `Cc1cn(C2OC(CO)C(O)C2O)c(=O)nc1N` (configuration not stated), the T/C by setting is: (dose: 25.0 mg/kg/injection, schedule: Q01DX005 (ip), vehicle: water) 104 % of control; (dose: 50.0 mg/kg/injection, schedule: Q01DX005 (ip), vehicle: water) 101 % of control; (dose: 100.0 mg/kg/injection, schedule: Q01DX005 (ip), vehicle: water) 100 % of control; (dose: 200.0 mg/kg/injection, schedule: Q01DX005 (ip), vehicle: water) 96 % of control.
Regarding `CC(C)N(CCCO)CCCO`, the T/C runs as follows: under setting [5], 97 % of control; under setting [6], 93 % of control; under setting [7], 102 % of control.
Consider `C[Si](C)(C)O/C=C1\CCc2ccccc2C1=O`, for which the T/C under setting [8] is 100 % of control; the T/C under setting [9] was 101 % of control; the T/C (dose: 200.0 mg/kg/injection, schedule: Q01DX005 (ip), vehicle: saline with Tween-80) was 114 % of control.
For `CC1C(=O)C=C(c2ccccc2)C1(O)c1ccccc1` (configuration not stated), the T/C by setting is: under setting [10], 104 % of control; (dose: 200.0 mg/kg/injection, schedule: Q01DX001 (ip), vehicle: saline with Tween-80) 103 % of control.
As for `CCOC(=O)NN(C(=O)OCC)C(C(=O)C1CCCCC1)N(NC(=O)OCC)C(=O)OCC`, the T/C under setting [11] was 102 % of control; the T/C under setting [12] is 100 % of control; the T/C (dose: 200.0 mg/kg/injection, schedule: Q01DX009 (ip), vehicle: Klucel (hydroxypropylcellulose) (HPC)) is 96 % of control.
For the molecule `Nc1nnc2nc(C(C(=O)c3ccc(O)cc3O)c3nc4nnc(N)n4[nH]c3=O)c(=O)[nH]n12`, the T/C was 102 % of control under setting [13]; 98 % of control under setting [14]; 104 % of control (dose: 240.0 mg/kg/injection, schedule: Q01DX005 (ip), vehicle: saline with Tween-80).
With `CCN(CC)C(C)(C)C(=O)/C=C/c1ccc(C)cc1`, the T/C reads like this: under setting [13], 107 % of control; under setting [14], 103 % of control.
For `COc1ccc(/C(O)=C/c2nc3ccc(Cl)cc3[nH]c2=O)cc1`, the T/C was 101 % of control under setting [15], 99 % of control under setting [16] and 91 % of control under setting [17].
As for `Cc1c2oc3c(C)ccc(C(=O)NC4C(=O)NC(C(C)C)C(=O)N5CCCC5C(=O)N(C)CC(=O)N(C)C(C(C)C)C(=O)OC4C)c3nc-2c(C(=O)NC2C(=O)NC(C(C)C)C(=O)N3CC(O)CC3C(=O)N(C)CC(=O)N(C)C(C(C)C)C(=O)OC2C)c(N)c1=O` (configuration not stated) (I: TV[Hyp][Sar][NMeV] / II: TVP[Sar][NMeV]; ester I:1-I:C, II:1-II:C; linker I:N-II:N via Actinocin(1to9); configuration not given here), the T/C is, setting by setting: (dose: 0.1 mg/kg/injection, schedule: Q01DX009 (ip), vehicle: Klucel (hydroxypropylcellulose) (HPC)) 221 % of control; (dose: 0.2 mg/kg/injection, schedule: Q01DX009 (ip), vehicle: Klucel (hydroxypropylcellulose) (HPC)) 108 % of control; (dose: 0.2 mg/kg/injection, schedule: Q01DX009 (ip), vehicle: water) 151 % of control; (dose: 0.4 mg/kg/injection, schedule: Q01DX009 (ip), vehicle: water) 186 % of control.
With `CN(C)CCOc1ccc2c(c1)C1=NN(c3ccccc3)C(=O)CC1CO2` (configuration not stated), the T/C runs as follows: under setting [13], 103 % of control; under setting [14], 99 % of control.
Turning to `Cc1cc2c(cc1C)NC1=C(N2)OC(c2c3ccccc3cc3ccccc23)C1=O` (configuration not stated), the T/C under setting [15] is 92 % of control, the T/C under setting [16] was 88 % of control and the T/C under setting [17] was 90 % of control.
Turning to `NC(=O)CC(NC(c1ccccc1)(c1ccccc1)c1ccccc1)C(=O)ON1C(=O)CCC1=O` (configuration not stated), the T/C reads like this: (dose: 25.0 mg/kg/injection, schedule: Q01DX001 (ip), vehicle: saline with Tween-80) 104 % of control; (dose: 50.0 mg/kg/injection, schedule: Q01DX001 (ip), vehicle: saline with Tween-80) 100 % of control; under setting [10], 100 % of control.
Regarding `COc1ccc2c(c1OC)C(O)N1CCc3cc4c(cc3C1=C2C(=O)c1ccccc1)OCO4` (configuration not stated), the T/C is 100 % of control and 106 % of control (dose: 12.5 mg/kg/injection, schedule: Q01DX005 (ip), vehicle: Klucel (hydroxypropylcellulose) (HPC)); 100 % of control and 94 % of control (dose: 25.0 mg/kg/injection, schedule: Q01DX005 (ip), vehicle: Klucel (hydroxypropylcellulose) (HPC)); 103 % of control (2×) and 123 % of control (dose: 50.0 mg/kg/injection, schedule: Q01DX005 (ip), vehicle: Klucel (hydroxypropylcellulose) (HPC)); 111 % of control (dose: 100.0 mg/kg/injection, schedule: Q01DX005 (ip), vehicle: Klucel (hydroxypropylcellulose) (HPC)).
With `Cc1ccc(/C=N/NC(N)=S)s1`, the T/C under setting [1] is 100 % of control, the T/C under setting [2] was 108 % of control, the T/C under setting [3] was 107 % of control and the T/C under setting [4] is 106 % of control.
For `CC(C)c1ccc(N2C=Nc3ccc(C(C)C)cc3C2)cc1`, the T/C by setting is: (dose: 50.0 mg/kg/injection, schedule: Q01DX009 (ip), vehicle: other) 92 % of control; (dose: 100.0 mg/kg/injection, schedule: Q01DX009 (ip), vehicle: other) 99 % of control; (dose: 200.0 mg/kg/injection, schedule: Q01DX009 (ip), vehicle: other) 99 % of control.
In the case of `CCOC(=O)C1CSCN1` (configuration not stated), the T/C reads like this: (dose: 25.0 mg/kg/injection, schedule: Q01DX009 (ip), vehicle: saline) 97 % of control; under setting [5], 95 % of control; under setting [6], 100 % of control; under setting [7], 100 % of control.
For `Cc1ccc2nc(N(C)C)nc-2c2[nH]c(=O)[nH]c12`, the T/C is 110 % of control (dose: 8.25 mg/kg/injection, schedule: Q01DX005 (ip), vehicle: saline); 110 % of control (dose: 16.5 mg/kg/injection, schedule: Q01DX005 (ip), vehicle: saline); 107 % of control (dose: 33.0 mg/kg/injection, schedule: Q01DX005 (ip), vehicle: saline); 102 % of control (dose: 66.0 mg/kg/injection, schedule: Q01DX005 (ip), vehicle: saline).
For the molecule `C#CC(C)(C)Oc1ccc2c(=O)c(-c3ccc(OC)cc3)coc2c1`, the T/C runs as follows: under setting [8], 94 % of control; under setting [9], 89 % of control.
Take `CC(C)NC(=O)OCc1cn2c(c1COC(=O)NC(C)C)CCC2`: the T/C was 120 % of control and 121 % of control (dose: 12.5 mg/kg/injection, schedule: Q01DX005 (ip), vehicle: saline with Tween-80); 112 % of control (dose: 25.0 mg/kg/injection, schedule: Q01DX005 (ip), vehicle: saline with Tween-80).
As for `CC(C)(C)CC(C)(C)NC(=S)NC1C2CC3CC(C2)CC1C3` (configuration not stated), the T/C under setting [11] was 89 % of control and the T/C under setting [12] was 90 % of control.
